Patent US20100305068A1, “COMPOUNDS AND METHODS FOR MODULATING PROTEIN TRAFFICKING” (priority 2006, published 2010)
Where two headings read alike, the source gives them in different places.

System: pdr5 ypt1^ts cells
Experiment: microbe, parasite or virus in culture
Type: cell-based, yeast
Details: for minimal effective concentration: Saccharomyces cerevisiae, lowest concentration tested giving growth above the 0 μM background, read-out: ypt1-ts MRC (minimal rescue concentration); for minimal effective concentration / optical density, ypt1-ts, 0.39 / optical density, ypt1-ts, 0.78 / optical density, ypt1-ts, 1.56 / optical density, ypt1-ts, 3.13 / optical density, ypt1-ts, 6.25 / optical density, ypt1-ts, 12.5 / optical density, ypt1-ts, 25: Table 2; for optical density, ypt1-ts, 0.39: 0.39 μM compound; for optical density, ypt1-ts, 0.39 / optical density, ypt1-ts, 0.78 / optical density, ypt1-ts, 1.56 / optical density, ypt1-ts, 3.13 / optical density, ypt1-ts, 6.25 / optical density, ypt1-ts, 12.5 / optical density, ypt1-ts, 25: background (0 μM) 0.058; for optical density, ypt1-ts, 0.78: 0.78 μM compound; for optical density, ypt1-ts, 1.56: 1.56 μM compound; for optical density, ypt1-ts, 3.13: 3.13 μM compound; for optical density, ypt1-ts, 6.25: 6.25 μM compound; for optical density, ypt1-ts, 12.5: 12.5 μM compound; for optical density, ypt1-ts, 25: 25 μM compound
Source text: The activity of the compounds as modulators of protein trafficking may be measured in the assays described herein that evaluate the ability of a compound to rescue an impairment in protein trafficking. For example, the yeast mutant cell line ypt1^ts can be used to identify compounds that rescue cells from the lethal phenotype of a mutant YPT1 allele (see, e.g., Examples and Schmitt et al. (1988) Cell 53:635-47). The activity may be measured, for example, in a whole yeast cell assay using 384-well screening protocol and an optical density measurement.
The yeast mutant cell line ypt1^ts suppresses, in a temperature dependent fashion, the dominant-lethal phenotype of a mutant YPT1 allele (Schmitt et al. (1988) Cell 53:635-47). ypt1^ts cells grow normally at temperatures up to 30° C., but are growth arrested at 37° C. (Id.).
A library of compounds (“The Spectrum Collection”) obtained from Microsource Discovery Systems, Inc. (Gaylordsville, Conn.) was screened to assess the ability of individual compounds to restore growth of ypt1^ts cells. Screening was carried out using ypt1^ts cells containing a mutation in the pdr5 gene (resulting in inactivation of a membrane efflux pump). The effect of the compounds was measured in pdr5 ypt1^ts cells cultured at 37° C.

[1] = Table 3, 3.13 uM compound, 37° C., background (0 uM) 0.077
[2] = Table 3, 12.5 uM compound, 37° C., background (0 uM) 0.077
[3] = Table 3, 50 uM compound, 37° C., background (0 uM) 0.077

Compound | optical density, 3.13 uM [1] | optical density, 12.5 uM [2] | optical density, 50 uM [3] | minimal effective concentration (37° C.) [µM] | optical density, ypt1-ts, 0.39 (37° C.) | optical density, ypt1-ts, 0.78 (37° C.) | optical density, ypt1-ts, 1.56 (37° C.) | optical density, ypt1-ts, 3.13 (37° C.) | optical density, ypt1-ts, 6.25 (37° C.) | optical density, ypt1-ts, 12.5 (37° C.) | optical density, ypt1-ts, 25 (37° C.) | further results
COc1c2c(cc3c1OCO3)[C@]13C=C[C@H](OC)C[C@H]1N(C2)C[C@@H]3O [AMBELLINE] | 0.071 | 0.302 | 0.057 | – | – | – | – | – | – | – | – | –
COc1ccc([C@@H](C)C(=O)c2ccc(O)cc2O)cc1 [ANGOLENSIN (R)] | 0.327 | 0.652 | 0.062 | – | – | – | – | – | – | – | – | –
CC(=O)O[C@@H]1C[C@@]2(C)[C@H](c3ccoc3)C[C@H]3O[C@]32[C@]2(C)C(=O)C(O)=C3C(C)(C)C(=O)C=C[C@]3(C)[C@@H]12 [ANTHOTHECOL] | – | – | – | 3.13 | 0.161 | 0.085 | 0.12 | 0.262 | 0.537 | 0.581 | 0.557 | –
C#CCCCCCCCCCCCC(O)CC(O)CO (stereo not drawn) [AVO- CADYNE] | 0.132 | 0.425 | 0.265 | – | – | – | – | – | – | – | – | –
C#CCCCCCCCCCCCC(=O)CC(O)COC(C)=O (stereo not drawn) [AVO- CADYNONE ACETATE] | 0.126 | 0.275 | 0.057 | – | – | – | – | – | – | – | – | –
C=CCCCCCCCCCCCC(O)CC(O)CO (stereo not drawn) [AVOCADENE] | – | – | – | 6.25 | 0.097 | 0.074 | 0.09 | 0.108 | 0.134 | 0.209 | 0.408 | –
C#CCCCCCCCCCCCC(O)CC(O)COC(C)=O (stereo not drawn) [AVOCADYNE ACETATE] | 0.389 | 0.406 | 0.039 | – | – | – | – | – | – | – | – | –
O=C1c2ccccc2-c2cccc3cccc1c23 [BENZANTHRONE] | – | – | – | 3.13 | 0.108 | 0.09 | 0.123 | 0.263 | 0.491 | 0.547 | 0.383 | –
COc1ccc(-c2coc3cc(O)cc(O)c3c2=O)cc1 [BIO- CHANIN A] | 0.112 | 0.297 | 0.055 | – | – | – | – | – | – | – | – | –
CC1(C)CC2C1CCC1(CBr)CC[C@H]3C(CC(=O)O)C(=O)OC23C1 (stereo partly drawn) [BROMO-3-HYDROXY- 4-(SUCCIN-2-YL)- CARYOLANE gamma- LACTONE] | – | – | – | 6.25 | 0.091 | 0.079 | 0.091 | 0.101 | 0.139 | 0.245 | 0.417 | –
COC(=O)C[C@H]1C(C)(C)C(=O)[C@@H]2CC3C4=CC(=O)O[C@@H](c5ccoc5)[C@]4(C)CCC3[C@]1(C)C2=O (stereo partly drawn) [CARAPIN] | 0.22 | 0.357 | 0.5 | – | – | – | – | – | – | – | – | –
CNC(=O)Oc1cccc2c1OC(C)(C)C2 [CARBO- FURAN] | 0.176 | 0.264 | 0.239 | – | – | – | – | – | – | – | – | –
C=C1CCC(OC(C)=O)/C(C)=C/C[C@@H]2[C@@H]1CC2(C)C (stereo partly drawn) [CARY[…]] | – | – | – | 12.5 | 0.087 | 0.076 | 0.084 | 0.1 | 0.109 | 0.239 | 0.258 | –
CC1(C)C(=O)C=C[C@@]2(C)C1=C(O)C(=O)[C@]1(C)[C@@H]2CC[C@@]2(C)[C@H](c3ccoc3)C[C@H]3O[C@]321 [CEDRELONE] | – | – | – | 1.56 | 0.221 | 0.124 | 0.264 | 0.49 | 0.532 | 0.541 | 0.496 | –
CC(CCC(=O)O)[C@H]1CCC2C3C(CC[C@@]21C)[C@@]1(C)CC[C@@H](O)C[C@H]1C[C@H]3O (stereo partly drawn) [CHENODIOL, reference compound] | 0.126 | 0.285 | 0.15 | – | – | – | – | – | – | – | – | –
CCOP(=S)(OCC)Oc1nc(Cl)c(Cl)cc1Cl [CHLOR- PYRIFOS] | 0.122 | 0.166 | 0.253 | – | – | – | – | – | – | – | – | –
CC(=O)O[C@]1(C(C)=O)CC[C@H]2[C@@H]3C=C(Cl)C4=CC(=O)CC[C@]4(C)[C@H]3CC[C@@]21C [CHLORMADINONE ACETATE, reference compound] | – | – | – | 12.5 | 0.193 | 0.078 | 0.088 | 0.112 | 0.11 | 0.2 | 0.296 | –
CC(C)OC(=O)Nc1cccc(Cl)c1 [CHLORPROPHAM] | – | – | – | 25 | 0.086 | 0.072 | 0.081 | 0.09 | 0.096 | 0.101 | 0.145 | –
CC1=C2C(=CO[C@H](C)[C@H]2C)C(=O)C(C(=O)O)=C1O [CITRININ] | 0.102 | 0.158 | 0.38 | – | – | – | – | – | – | – | – | –
Cl.Clc1cccc(Cl)c1N=C1NCCN1 [CLONIDINE HYDRO- CHLORIDE, reference compound] | – | – | – | – | – | – | – | – | – | – | – | optical density, 3.13 uM: 0.237; optical density, 12.5 uM: 0.095; optical density, 50 uM: 0.064
C=C1C(=O)OC2CC1C(OC(C)=O)C/C(C)=C/CC/C(C)=C/CC[C@]2(C)O (stereo partly drawn) [CRASSIN ACETATE] | – | – | – | 12.5 | 0.084 | 0.068 | 0.075 | 0.099 | 0.107 | 0.324 | 0.443 | –
CC1(C)C(=O)C=C[C@@]2(C)C1CC(=O)[C@]1(C)C2CC[C@@]2(C)[C@H](c3ccoc3)OC(=O)[C@H]3O[C@]321 (stereo partly drawn) [DEACETOXY- 7-OXOGEDUNIN] | 0.594 | 0.63 | 0.642 | – | – | – | – | – | – | – | – | –
CC1(C)C(=O)C=C[C@@]2(C)C1C[C@@H](O)[C@]1(C)C2CC[C@@]2(C)[C@H](c3ccoc3)OC(=O)[C@H]3O[C@]321 (stereo partly drawn) [DEACETYL- GEDUNIN] | 0.116 | 0.185 | 0.377 | – | – | – | – | – | – | – | – | –
CC(C)c1ccc2c(c1)CCC1C(C)(C(N)=O)CCCC21C (stereo not drawn) [DEHYDRO- ABIETAMIDE] | 0.272 | 0.419 | 0.041 | – | – | – | – | – | – | – | – | –
C=CCCCCCCCCCCC/C=C/C(O)COC(C)=O (stereo not drawn) [DEHYDRO- AVOCATIN - 1-ACETATE] | 0.116 | 0.329 | 0.365 | – | – | – | – | – | – | – | – | –
